From US4378344A, “Method and apparatus for performing multiple, simultaneous in vitro diagnostic tests using a solid phase system” (priority 1979, dated 1983) come the findings set out here.

Read-outs that look alike come from different tables or passages of the source.

Assay [1] concerns anti-T4. As to the kind of experiment: simultaneous assay: 125I-thyroxin bound to anti-T4 coated stick (Example 6). The format is binding, rabbit. Here is the method: (§1) Digoxin and thyroxin were utilized as the antigens. 1.1 ml of 0.01 M PBS at pH 7.4 and also containing 5 mg/ml thimersol was added to the appropriate tubes. 50 μl of a digoxin solution and 50 μl of a T4 solution were added to each tube.
(§2) The following series of assays were conducted.
(B) uncoated tube and anti-T4 coated stick
(§3) (D) anti-digoxin coated tube and anti-T4 coated stick.
(§4) The remainder of the values are based on these two values.

The subject of assay [2] is anti-T4. Nature of the assay: simultaneous assay in clinical serum sample: 125I-thyroxin bound to anti-T4 coated stick (Example 7). Type of assay: binding, rabbit.
For assay [3], the system named is anti-digoxin. Nature of the assay: simultaneous assay: 125I-digoxin bound to anti-digoxin coated tube (Example 6). The format is binding, rabbit. Here is the method: as §1, §2
(A) anti-digoxin coated tube;
(C) anti-digoxin coated tube and uncoated stick; and,
as §3, §4

Assay [4] has as its system anti-digoxin. The settings on record: clinical sample. Here is the method: The same series of assays were conducted as described in Example 6 and expressed in the same manner.

Consider `N[C@@H](Cc1cc(I)c(Oc2cc(I)c(O)c(I)c2)c(I)c1)C(=O)O` [T4, thyroxin], for which the “T4 binding to the anti-T4 coated stick” value with anti-T4 [1] (when an anti-digoxin coated tube is also present) was “no significant difference”; with anti-T4 [1] (when digoxin, 125I-digoxin or both are present), “no significant difference”.

As for `N[C@@H](Cc1cc(I)c(Oc2cc(I)c(O)c([125I])c2)c(I)c1)C(=O)O` [^125 I-T4, ^125 I-Thyroxin], the “% ^125 I-Thyroxin Bound” value in the assay on anti-T4 [2] (stick 2 (no 125I-digoxin), series B, uncoated tube, set as 100%) is on record as 100%; with anti-T4 [2] (stick 2 (no 125I-digoxin), series D, anti-digoxin tube), 102%; in the assay with anti-T4 [2] (stick 3 (with 125I-digoxin), series B, uncoated tube) it was 146%; in the assay with anti-T4 [2] (stick 3 (with 125I-digoxin), series D, anti-digoxin tube), 143%; in the assay with anti-T4 [1] (stick 2 (digoxin 0, T4 0 ng/ml; no 125I-digoxin), series B, uncoated tube, set as 100%) it was 100%; in the assay on anti-T4 [1] (stick 2 (digoxin 0, T4 0 ng/ml; no 125I-digoxin), series D, anti-digoxin tube), 96%. Also, the “% ^125 I-Thyroxin Bound” value in the assay on anti-T4 [1] (stick 3 (digoxin 0, T4 0 ng/ml; with 125I-digoxin), series B, uncoated tube) was found to be 106%; in the assay with anti-T4 [1] (stick 3 (digoxin 0, T4 0 ng/ml; with 125I-digoxin), series D, anti-digoxin tube) it was 106%; with anti-T4 [1] (stick 5 (digoxin 0, T4 30 ng/ml; no 125I-digoxin), series B, uncoated tube), 81%; in the assay on anti-T4 [1] (stick 5 (digoxin 0, T4 30 ng/ml; no 125I-digoxin), series D, anti-digoxin tube), 79%; with anti-T4 [1] (stick 6 (digoxin 0, T4 30 ng/ml; with 125I-digoxin), series B, uncoated tube) it was 92%; in the assay on anti-T4 [1] (stick 6 (digoxin 0, T4 30 ng/ml; with 125I-digoxin), series D, anti-digoxin tube), 95%. For the same compound, the “% ^125 I-Thyroxin Bound” value in the assay with anti-T4 [1] (stick 8 (digoxin 4, T4 0 ng/ml; no 125I-digoxin), series B, uncoated tube) is listed as 101%; with anti-T4 [1] (stick 8 (digoxin 4, T4 0 ng/ml; no 125I-digoxin), series D, anti-digoxin tube) it was 100%; in the assay with anti-T4 [1] (stick 9 (digoxin 4, T4 0 ng/ml; with 125I-digoxin), series B, uncoated tube) it was 113%; with anti-T4 [1] (stick 9 (digoxin 4, T4 0 ng/ml; with 125I-digoxin), series D, anti-digoxin tube), 108%; in the assay with anti-T4 [1] (stick 11 (digoxin 4, T4 30 ng/ml; no 125I-digoxin), series B, uncoated tube), 82%; with anti-T4 [1] (stick 11 (digoxin 4, T4 30 ng/ml; no 125I-digoxin), series D, anti-digoxin tube), 81%. In addition, the “% ^125 I-Thyroxin Bound” value was 92% with anti-T4 [1] (stick 12 (digoxin 4, T4 30 ng/ml; with 125I-digoxin), series B, uncoated tube) and 89% with anti-T4 [1] (stick 12 (digoxin 4, T4 30 ng/ml; with 125I-digoxin), series D, anti-digoxin tube).

As for ^125 I-Digoxin, the “% ^125 I-Digoxin Bound” value came out at 100% in the assay with anti-digoxin [3] (tube 1 (digoxin 0, T4 0 ng/ml; no 125I-T4), series A, no stick, set as 100%); 118% in the assay on anti-digoxin [3] (tube 1 (digoxin 0, T4 0 ng/ml; no 125I-T4), series C, uncoated stick); 126% in the assay with anti-digoxin [3] (tube 1 (digoxin 0, T4 0 ng/ml; no 125I-T4), series D, anti-T4 stick); 98% in the assay with anti-digoxin [3] (tube 3 (digoxin 0, T4 0 ng/ml; with 125I-T4), series A, no stick); 109% with anti-digoxin [3] (tube 3 (digoxin 0, T4 0 ng/ml; with 125I-T4), series C, uncoated stick); 121% in the assay with anti-digoxin [3] (tube 3 (digoxin 0, T4 0 ng/ml; with 125I-T4), series D, anti-T4 stick). Further, the “% ^125 I-Digoxin Bound” value with anti-digoxin [3] (tube 4 (digoxin 0, T4 30 ng/ml; no 125I-T4), series A, no stick) amounted to 97%; in the assay on anti-digoxin [3] (tube 4 (digoxin 0, T4 30 ng/ml; no 125I-T4), series C, uncoated stick), 111%; in the assay with anti-digoxin [3] (tube 4 (digoxin 0, T4 30 ng/ml; no 125I-T4), series D, anti-T4 stick) it was 109%; with anti-digoxin [3] (tube 6 (digoxin 0, T4 30 ng/ml; with 125I-T4), series A, no stick), 100%; in the assay with anti-digoxin [3] (tube 6 (digoxin 0, T4 30 ng/ml; with 125I-T4), series C, uncoated stick) it was 104%; in the assay on anti-digoxin [3] (tube 6 (digoxin 0, T4 30 ng/ml; with 125I-T4), series D, anti-T4 stick), 110%. Further, the “% ^125 I-Digoxin Bound” value was 66% in the assay on anti-digoxin [3] (tube 7 (digoxin 4, T4 0 ng/ml; no 125I-T4), series A, no stick); 76% in the assay with anti-digoxin [3] (tube 7 (digoxin 4, T4 0 ng/ml; no 125I-T4), series C, uncoated stick); 68% with anti-digoxin [3] (tube 7 (digoxin 4, T4 0 ng/ml; no 125I-T4), series D, anti-T4 stick); 69% with anti-digoxin [3] (tube 9 (digoxin 4, T4 0 ng/ml; with 125I-T4), series A, no stick); 77% with anti-digoxin [3] (tube 9 (digoxin 4, T4 0 ng/ml; with 125I-T4), series C, uncoated stick); 70% in the assay on anti-digoxin [3] (tube 9 (digoxin 4, T4 0 ng/ml; with 125I-T4), series D, anti-T4 stick). Also, the “% ^125 I-Digoxin Bound” value was 62% in the assay with anti-digoxin [3] (tube 10 (digoxin 4, T4 30 ng/ml; no 125I-T4), series A, no stick); 76% in the assay on anti-digoxin [3] (tube 10 (digoxin 4, T4 30 ng/ml; no 125I-T4), series C, uncoated stick); 69% in the assay with anti-digoxin [3] (tube 10 (digoxin 4, T4 30 ng/ml; no 125I-T4), series D, anti-T4 stick); 63% with anti-digoxin [3] (tube 12 (digoxin 4, T4 30 ng/ml; with 125I-T4), series A, no stick); 73% with anti-digoxin [3] (tube 12 (digoxin 4, T4 30 ng/ml; with 125I-T4), series C, uncoated stick); 68% with anti-digoxin [3] (tube 12 (digoxin 4, T4 30 ng/ml; with 125I-T4), series D, anti-T4 stick). For the same compound, the “% ^125 I-Digoxin Bound” value came out at 100% in the assay on anti-digoxin [4] (tube 1 (no 125I-T4), series A, no stick, set as 100%); 95% in the assay on anti-digoxin [4] (tube 1 (no 125I-T4), series C, uncoated stick); 114% with anti-digoxin [4] (tube 1 (no 125I-T4), series D, anti-T4 stick); 98% in the assay on anti-digoxin [4] (tube 3 (with 125I-T4), series A, no stick); 135% in the assay with anti-digoxin [4] (tube 3 (with 125I-T4), series C, uncoated stick); 116% in the assay with anti-digoxin [4] (tube 3 (with 125I-T4), series D, anti-T4 stick).

In the case of `C[C@H]1O[C@@H](O[C@H]2[C@@H](O)C[C@H](O[C@H]3[C@@H](O)C[C@H](O[C@H]4CC[C@@]5(C)[C@H](CC[C@@H]6[C@@H]5C[C@@H](O)[C@]5(C)[C@@H](C7=CC(=O)OC7)CC[C@]65O)C4)O[C@@H]3C)O[C@@H]2C)C[C@H](O)[C@@H]1O` [digoxin], the “digoxin binding to the anti-digoxin coated tube” value is recorded as “no significant difference” in the assay with anti-digoxin [3] (when T4, 125I-T4 or both are present) and “no significant difference” with anti-digoxin [3] (when an uncoated stick or an anti-T4 coated stick is also present).
